Experimental data: PubChem BioAssay AID248 (DTP/NCI, 2004)
Inconclusive results and toxic doses are left out. Rule as the data show it: active = T/C of 150% or more; inactive = T/C below 125%. Square brackets hold non-standard residues; d marks the D form. Peptide text beside a SMILES is read from it. * marks the point of attachment. ξ: configuration not given here. Cbz = O=C(OCc1ccccc1)*; ξNva = CCCC(N)C(=O)O

Test system: L1210 leukemia ip in BDF1 mice, survival T/C
Assay: NCI In Vivo Anticancer Drug Screen. Data for tumor model L1210 Leukemia (intraperitoneal) in B6D2F1 (BDF1) mice
Conditions: endpoint: mean survival time, higher = longer survival
Procedure, shortened: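 Transplanted-tumor mice were given test agent; controls received vehicle only. Survival readings from the two groups were divided (treated over control).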

[1] = dose: 100.0 mg/kg/injection, schedule: Q04DX003 (ip), vehicle: saline with Tween-80
[2] = dose: 200.0 mg/kg/injection, schedule: Q04DX003 (ip), vehicle: saline with Tween-80
[3] = dose: 100.0 mg/kg/injection, schedule: Q01DX001 (ip), vehicle: saline
[4] = dose: 200.0 mg/kg/injection, schedule: Q01DX001 (ip), vehicle: saline
[5] = dose: 400.0 mg/kg/injection, schedule: Q01DX001 (ip), vehicle: saline
[6] = dose: 100.0 mg/kg/injection, schedule: Q04DX003 (ip), vehicle: saline
[7] = dose: 200.0 mg/kg/injection, schedule: Q04DX003 (ip), vehicle: saline
[8] = dose: 400.0 mg/kg/injection, schedule: Q04DX003 (ip), vehicle: saline
[9] = dose: 100.0 mg/kg/injection, schedule: Q01DX009 (ip), vehicle: saline with Tween-80
[10] = dose: 200.0 mg/kg/injection, schedule: Q01DX009 (ip), vehicle: saline with Tween-80
[11] = dose: 400.0 mg/kg/injection, schedule: Q01DX009 (ip), vehicle: saline with Tween-80
[12] = dose: 400.0 mg/kg/injection, schedule: Q04DX003 (ip), vehicle: saline with Tween-80
[13] = dose: 50.0 mg/kg/injection, schedule: Q01DX001 (ip), vehicle: carboxymethylcellulose (CMC)
[14] = dose: 100.0 mg/kg/injection, schedule: Q01DX001 (ip), vehicle: carboxymethylcellulose (CMC)
[15] = dose: 200.0 mg/kg/injection, schedule: Q01DX001 (ip), vehicle: carboxymethylcellulose (CMC)
[16] = dose: 400.0 mg/kg/injection, schedule: Q01DX001 (ip), vehicle: carboxymethylcellulose (CMC)

Measured: T/C

COc1ccc(COC(=O)c2cc([N+](=O)[O-])cc([N+](=O)[O-])c2)cc1
inactive: dose: 100.0 mg/kg/injection, schedule: Q01DX001 (ip), vehicle: saline with Tween-80 95 % of control | dose: 200.0 mg/kg/injection, schedule: Q01DX001 (ip), vehicle: saline with Tween-80 100 % of control | dose: 400.0 mg/kg/injection, schedule: Q01DX001 (ip), vehicle: saline with Tween-80 92 % of control

C=C1C(=O)O[C@@H]2C[C@@H](C)[C@@H]3CC(=O)OC[C@@]3(C)C[C@H]12
inactive: [1] 95 % of control | [2] 97 % of control

CNC(=O)C(c1ccccc1)C(O)(c1ccccc1)c1ccccc1 (stereo not drawn)
inactive: dose: 50.0 mg/kg/injection, schedule: Q01DX001 (ip), vehicle: saline 96 % of control | [3] 93 % of control | [4] 98 % of control | [5] 87 % of control

C[CH2][Sb]([CH2]C)([CH2]C)([O]C(C)=O)[O]C(C)=O
inactive: dose: 5.0 mg/kg/injection, schedule: Q04DX002 (ip), vehicle: saline with Tween-80 97 % of control | dose: 10.0 mg/kg/injection, schedule: Q04DX002 (ip), vehicle: saline with Tween-80 97 % of control | dose: 20.0 mg/kg/injection, schedule: Q04DX002 (ip), vehicle: saline with Tween-80 104 % of control

CC1(C(=O)O)CC(Cl)=CCC1C(=O)O (stereo not drawn)
inactive: dose: 100.0 mg/kg/injection, schedule: Q01DX001 (ip), vehicle: steriod suspending solution 105 % of control | dose: 200.0 mg/kg/injection, schedule: Q01DX001 (ip), vehicle: steriod suspending solution 103 % of control | dose: 400.0 mg/kg/injection, schedule: Q01DX001 (ip), vehicle: steriod suspending solution 97 % of control

CN(C)C(=O)C1C2CCC(C3CC32)C1C(=O)N(C)C (stereo not drawn)
inactive: dose: 75.0 mg/kg/injection, schedule: Q01DX009 (ip), vehicle: saline 95 % of control | [6] 106 % of control | dose: 150.0 mg/kg/injection, schedule: Q01DX009 (ip), vehicle: saline 97 % of control | [7] 106 % of control | dose: 300.0 mg/kg/injection, schedule: Q01DX009 (ip), vehicle: saline 95 % of control | [8] 103 % of control

O=c1[nH]c(=O)c2c3c(sc2[nH]1)CCCC3
inactive: dose: 100.0 mg/kg/injection, schedule: Q01DX001 (ip), vehicle: saline sonified 91 % of control | dose: 200.0 mg/kg/injection, schedule: Q01DX001 (ip), vehicle: saline sonified 91 % of control | dose: 400.0 mg/kg/injection, schedule: Q01DX001 (ip), vehicle: saline sonified 103 % of control

O=C1OCCN1c1ccc(S(=O)(=O)c2ccc(N3CCOC3=O)cc2)cc1
inactive: [9] 98 % of control | [1] 102 % of control | [10] 93 % of control | [2] 102 % of control | [11] 95 % of control | [12] 96 % of control

c1ccc2c(c1)CNC2
inactive: [6] 104 % of control | dose: 200.0 mg/kg/injection, schedule: Q01DX009 (ip), vehicle: saline 94 % of control | [7] 106 % of control | dose: 400.0 mg/kg/injection, schedule: Q01DX009 (ip), vehicle: saline 92 % of control | [8] 97 % of control

O=C(Nc1cccc(Cl)c1)Nc1cc(Cl)ccc1Cl
inactive: [9] 92 % of control | [1] 96 % of control | [10] 90 % of control | [2] 91 % of control | [11] 94 % of control | [12] 97 % of control

C/C=C/S(=O)(=O)c1ccccc1
inactive: dose: 75.0 mg/kg/injection, schedule: Q01DX001 (ip), vehicle: carboxymethylcellulose (CMC) 100 % of control

O=C1CCC(=O)N1c1ccc(I)cc1
inactive: [13] 96 % of control | [14] 98 % of control | [15] 93 % of control | [16] 107 % of control

CCCCNC(=O)c1ccc(C)c(OCc2ccccc2)c1[N+](=O)[O-]
inactive: [3] 108 % of control | [4] 87 % of control | [5] 90 % of control

c1ccc(C(c2ccccc2)n2ccnc2)cc1
inactive: dose: 37.5 mg/kg/injection, schedule: Q04DX003 (ip), vehicle: saline 94 % of control | dose: 75.0 mg/kg/injection, schedule: Q04DX003 (ip), vehicle: saline 102 % of control | dose: 150.0 mg/kg/injection, schedule: Q04DX003 (ip), vehicle: saline 105 % of control

FC(F)(F)/C([S-])=C(/[S-])C(F)(F)F.FC(F)(F)/C([S-])=C(/[S-])C(F)(F)F.FC(F)(F)/C([S-])=C(/[S-])C(F)(F)F.FC(F)(F)/C([S-])=C(/[S-])C(F)(F)F.[Co+3].[Co+3]
inactive: dose: 12.5 mg/kg/injection, schedule: Q01DX009 (ip), vehicle: other 113 % of control | dose: 25.0 mg/kg/injection, schedule: Q01DX009 (ip), vehicle: other 104 % of control

Cc1cc(=O)oc2c1ccc1c(O)cccc12
inactive: [14] 103 % of control | [15] 97 % of control | [16] 94 % of control

CCCC(NC(=O)CNC(=O)CNC(=O)OCc1ccccc1)C(=O)O (stereo not drawn) (Cbz-Gly-Gly-[ξNva]-OH)
inactive: dose: 100.0 mg/kg/injection, schedule: Q04DX003 (ip), vehicle: Klucel (hydroxypropylcellulose) (HPC) 101 % of control | dose: 200.0 mg/kg/injection, schedule: Q04DX003 (ip), vehicle: Klucel (hydroxypropylcellulose) (HPC) 106 % of control | dose: 400.0 mg/kg/injection, schedule: Q04DX003 (ip), vehicle: Klucel (hydroxypropylcellulose) (HPC) 106 % of control

Cc1ccc(C)c(NC(=O)OC/C=C/c2ccccc2)c1
inactive: dose: 100.0 mg/kg/injection, schedule: Q01DX009 (ip), vehicle: Klucel (hydroxypropylcellulose) (HPC) 88 % of control | dose: 200.0 mg/kg/injection, schedule: Q01DX009 (ip), vehicle: Klucel (hydroxypropylcellulose) (HPC) 86 % of control | dose: 400.0 mg/kg/injection, schedule: Q01DX009 (ip), vehicle: Klucel (hydroxypropylcellulose) (HPC) 86 % of control

NC(N)=N/N=C/CO
inactive: dose: 7.5 mg/kg/injection, schedule: Q01DX Z (oral), vehicle: saline 106 % of control | dose: 15.0 mg/kg/injection, schedule: Q01DX Z (oral), vehicle: saline 100 % of control | dose: 30.0 mg/kg/injection, schedule: Q01DX Z (oral), vehicle: saline 107 % of control | dose: 60.0 mg/kg/injection, schedule: Q01DX Z (oral), vehicle: saline 101 % of control | dose: 120.0 mg/kg/injection, schedule: Q01DX Z (oral), vehicle: saline 102 % of control | dose: 240.0 mg/kg/injection, schedule: Q01DX Z (oral), vehicle: saline 110 % of control

O=C(Nc1cccc(C(F)(F)F)c1)Nc1ccc(Cl)c(Cl)c1
inactive: [13] 96 % of control | [14] 102 % of control | [15] 98 % of control | [16] 113 % of control

CCCC1N(C)CCCN1C
inactive: [1] 114 % of control | [2] 102 % of control

c1ccc(CCCn2cnc3cnccc32)cc1
inactive: dose: 5.0 mg/kg/injection, schedule: Q01DX001 (ip), vehicle: saline 100 % of control | dose: 10.0 mg/kg/injection, schedule: Q01DX001 (ip), vehicle: saline 103 % of control | dose: 20.0 mg/kg/injection, schedule: Q01DX001 (ip), vehicle: saline 105 % of control | dose: 40.0 mg/kg/injection, schedule: Q01DX001 (ip), vehicle: saline 100 % of control | [3] 96 % of control

Oc1cccc2ccc(N/N=C/c3ccnc4c(O)cccc34)nc12
inactive: [14] 93 % of control | [15] 96 % of control | [16] 91 % of control
